Data on 7 molecules can be found in patent US4478845A, “Antiinflammatory and/or analgesic imidazoimidazoles” (E. I. Du Pont de Nemours and Company, priority 1983, dated 1984).

Structures are written as SMILES. Read-outs that look alike come from different tables or passages of the source.

Test [1] has as its system adjuvant-induced arthritis in rats (paw volume). The test can be described thus: Established Adjuvant-Induced Arthritis in Rats. As to conditions: for ED50: Rattus norvegicus, read-out: Adjuvant Arthritic ED50; for percent reduction in paw volume at the indicated dose: at 45 (mg/kg). Type of test: in vivo, Charles River Lewis male rats.
Test [2] concerns phenylquinone-induced writhing in mice. Description: Phenylquinone Writhing Test. Conditions: Mus musculus, read-out: Phenylquinone Writhing (PQW) ED50. Type of test: in vivo, female white mice. Here is the method: A test compound suspended in 1% methylcellulose was given orally to fasted (17-21 hours) female white mice, 5-20 animals per double blind test. Aqueous (0.01% phenyl-p-benzoquinone) phenylquinone, 0.20 ml per mouse, was injected intraperitoneally 6 minutes before observations were begun.
On the technique in general: In writhing tests, fewer writhes than in controls are read as antinociception.

The mark [3] stands for this setting: oral, rats, 7 daily doses, ED50% decrease from control paw volume (uninjected, left hind paw).
Setting [4] is: oral, fasted female mice, effective analgesic dose for 50% of the mice.

Regarding `CC(=O)Oc1ccccc1C(=O)O` [Aspirin], the ED50 (in general, the dose at which the effect has come halfway, by size or by number of responders) in test [1] (po) was 305 mg/kg.

With `CC1=NC(C(F)(F)F)(C(F)(F)F)c2nc(-c3ccc(F)cc3)c(-c3ccc(F)cc3)n21` [Example 1, 2,3-bis(4-Fluorophenyl)-5-methyl-7,7-bis(trifluoromethyl)imidazo[1,5-a]imidazole], the ED50 in test [1] (setting [3]) turned out to be 6.5 mg/kg; in test [2] (po), 135 mg/kg.

In the case of `COc1ccc(-c2nc3n(c2-c2ccc(OC)cc2)C(C)=NC3(C(F)(F)F)C(F)(F)F)cc1` [Example 2, 2,3-bis(4-Methoxyphenyl)-5-methyl-7,7-bis(trifluoromethyl)imidazo[1,5-a]imidazole], the “percent reduction in paw volume at the indicated dose” value in test [1] (oral, rats, 7 daily doses) is reported as 31%. Further, the ED50 in test [2] (setting [4]) is 21 mg/kg.

Take `CC1=NC(C(F)(F)F)(C(F)(F)F)c2nc(-c3ccc(C)cc3)c(-c3ccc(C)cc3)n21` [Example 3, 2,3-bis(4-Methylphenyl)-5-methyl-7,7-bis(trifluoromethyl)imidazo[1,5-a]imidazole]: the “percent reduction in paw volume at the indicated dose” value in test [1] (oral, rats, 7 daily doses) is on record as 44%. Also, in test [2] (setting [4]), the ED50 is over 108 mg/kg.

Turning to `CC(C)Cc1ccc(C(C)C(=O)O)cc1` (stereo not shown) [Ibuprofen], the values for the ED50 in test [1] (setting [3]) and in test [2] (setting [4]) were 100 mg/kg and 10 mg/kg, respectively.

In the case of `COc1ccc2c(c1)c(CC(=O)O)c(C)n2C(=O)c1ccc(Cl)cc1` [Indomethacin], the results for the ED50 in test [1] (po) and in test [2] (po) were 0.3 mg/kg and 0.35 mg/kg, respectively.

Take `CCCCC1C(=O)N(c2ccccc2)N(c2ccccc2)C1=O` [Phenylbutazone]: the results for the ED50 in test [1] (setting [3]) and in test [2] (setting [4]) were 10 mg/kg and 80 mg/kg, respectively.
